Reference: patent US20190192521A1, “Methods of Treating Arid1A-Mutated Cancers With HDAC6 Inhibitors and EZH2 Inhibitors” (The Wistar Institute of Anatomy and Biology, priority 2016, published 2019)

Experiments:
[1] = test system: ARID1A wild-type RMG1 cells; test: apoptosis (Annexin V, cleaved caspase 3, cleaved PARP p85) in ARID1A wild-type cells; assay type: cell-based, human; details: 1.25 μM
Experimental: Expression of apoptotic markers cleaved caspase 3 and cleaved PARP p85 by immunoblot. GAPDH expression was used as a loading control.
(§1) For immunoblotting, protein was isolated as described in Bitler et al. Nat. Med. 2015, 21, 231-238. Briefly, protein was extracted with RIPA buffer (150 mM NaCl, 1% NP40, 0.5% sodium deoxycholate, 0.1% SDS, 50 mM Tris pH 8.0, and 1 mM PMSF). Protein was separated on a SDS-PAGE and transferred to PVDF membrane. For immunoblot of p53 post-translation modifications, cells were treated with a proteasome inhibitor MG132 (10 μM) to stabilize p53 protein.
Annexin V and mitochondria membrane potentials were measured as follows. Phosphatidylserine externalization was detected using an Annexin V staining kit (Life Technologies) following the manufacturer's instructions. To measure change in mitochondria membrane potential cells were treated with 200 nM of tetramethylrhodamine, ethyl ester (TMRE; Abcam) for 15 min at 37° C. Annexin V and TMRE-positive cells were detected using the LSR18 and analyzed with the FlowJo software module.

[2] = test system: ARID1A-mutated OVISE cells; test: growth inhibition with or without p53 knockdown, OVISE; assay type: cell-based, human
Experimental: Growth inhibition was calculated based on integrated density as measured in NIH ImageJ, and values were normalized to vehicle control. Data is representative of 3 independent experiments. Error bars represent S.E.M. p-value calculated via two-tailed t-test.
Colony formation assays were performed as follows. Cell lines were infected with lentivirus pLKO.1-shRNAs or pLKO.1-control with puromycin selection marker. Infected cells were selected with 1 μg/mL of puromycin for 72 hours and the selected cells were seeded in 12-well or 24-well plates. Cell medium was changed every three days with appropriate drug doses for 14 days or until control wells became confluent. Colonies were washed twice with PBS and fixed with 10% methanol and 10% acetic acid in distilled water. Fixed colonies were stained with 0.005% crystal violet. Integrated density was measured using NIH ImageJ software.

[3] = test system: p53K120Ac in ARID1A wild-type RMG1 cells with or without ARID1A knockdown; test: immunoblot of p53K120Ac, RMG1 with or without shARID1A; assay type: cell-based, human; details: 1.25 μM
Experimental: Expression of the indicated proteins was examined by immunoblot. GAPDH expression was used as a loading control.
as §1

[4] = test system: p53K120Ac in ARID1A-mutated TOV21G cells; test: mitochondrial localization of p53K120Ac (immunofluorescence, cellular fractionation); assay type: cell-based, human; details: 1.25 μM
Text: FIG. 42 illustrates that apoptosis induced by HDAC6 inhibition in ARD1A-mutated cells correlates with mitochondrial localization of p53K120Ac and a decrease in mitochondrial membrane potential. […] Images were captured using confocal microscopy.
Mean of three independent experiments with S.E.M.
Expression of p53K120Ac, mitochondrial marker TOM20, and total p53 in the indicated fractions was examined by immunoblot. GAPDH expression was used as a loading control.
(§2) Immunofluorescence and immunohistochemical staining was performed as follows. Immunofluorescence was performed after 48 hours as indicated by fixing samples in 4% paraformaldehyde and permeabilizing with 0.5% Triton-X. Samples were incubated with primary antibodies for 2 hours at room temperature, highly cross absorbed secondary antibodies (Invitrogen) for 1 hour at room temperature and mounted with prolong anti-fade reagent (Invitrogen). Immuno-stained cells were imaged using a Leica Confocal microscope. […] Bitler et al. Nat. Med. 2015, 21, 231-238; Bitler et al. Cancer Research 2011, 71, 6184-6194. Expression of the stained markers was scored using a histologic score (H score) as previously described. McCarty, Jr. et al. Cancer research 1986, 46, 4244s-4248s.
Mitochondria were isolated using the Mitochondria Isolation Kit (Thermo Fisher Scientific). […]

[5] = test system: ARID1A-mutated TOV21G tumors; test: intrabursal orthotopic xenograft, ARID1A-mutated TOV21G; assay type: in vivo, mice
Text: Luciferase-expressing ARID1A-mutated TOV21G cells were orthotopically transplanted into the ovarian bursa sac of SCID/nude female mice. Tumors were allowed to establish for 14 days before randomized into two groups (n=6/group).
During treatment at indicated time interval mice were imaged based on luciferase expression to monitor tumor growth. Total flux (photons/sec) is graphed. *p=0.0313.
ARID1A-mutated TOV21G cells were orthotopically transplanted into the ovarian bursa sac of SCID/nude female mice. Tumors were allowed to establish for 2 weeks before the mice were randomized into two different treatment groups (n=5/group). […] After stopping the treatment, the mice from the indicated groups were followed for survival. Shown is the Kaplan-Meier survival curves for ACY1215 or vehicle control treated mice. The p-value was calculated by log-rank test.
The number of disseminated tumor nodules in peritoneal cavity was quantified.
Histological score (H-score) was calculated for 5 separate fields from 6 tumors from 6 individual mice from each of the indicated groups. Error bars represent S.E.M. The p-value was calculated via two-tailed t-test.
as §2
The intrabursal orthotopic xenograft in vivo model was performed as described previously (Bitler et al. Nat. Med. 2015, 21, 231-238; Bitler et al. Cancer Research 2011, 71, 6184-6194). The protocols were approved by the Institutional Animal Care and Use Committee (IACUC). Briefly, 1×10^6 luciferase-expressing TOV-21G or RMG1 cells were unilaterally injected into the ovarian bursa sac of immunocompromised mice (n=6 per group). Two weeks after injection, tumors were visualized by injecting luciferin (intraperitoneal (i.p.): 4 mg/mice) resuspended in PBS and imaged with an In Vivo Imaging System (IVIS). […] Images were analyzed using Live Imaging 4.0 software. At end of the experiments, tumors were surgically dissected and tumor burden was calculated based on tumor weight. Intraperitoneally disseminated tumor nodules were quantified.
Seidel et al. Epigenomics 2015, 7, 103-118. […] Santo et al. Blood 2012, 119, 2579-2589. To determine the effects of HDAC6 inhibition in vivo on the growth of ARID1A-mutated tumors, luciferase-expressing ARID1A-mutated TOV21G cells were orthotopically transplanted into the bursa-sac covering the ovary of immunocompromised nude mice to mimic the tumor microenvironment. The injected ARID1A wild-type or mutant cells were allowed to grow for 2 weeks to establish the orthotopic tumors.

[6] = dissected ARID1A-mutated tumors

O=C(CCCCCCNC(=O)c1cnc(N(c2ccccc2)c2ccccc2)nc1)NO [rocilinostat, 2-(diphenylamino)-N-(7-(hydroxyamino)-7-oxoheptyl)pyrimidine-5-carboxamide]
apoptosis in ARID1A wild type cells [1]: did not induce a significant increase in apoptosis
markers of apoptosis in ARID1A wild-type cells with ARID1A knockdown ([1]; shARID1A): significantly increased markers of apoptosis
effect of p53 knockdown on apoptosis and growth inhibition induced by the compound [2]: significantly impaired the apoptosis and growth inhibition
p53K120Ac in ARID1A knockdown cells compared with controls [3]: significant increase in p53K120Ac
p53K120Ac in the mitochondrial fraction ([4]; cellular fractionation): increase in p53K120Ac in the mitochondrial fraction
co-localization of p53K120Ac and mitochondrial marker TOM20 ([4]; immunofluorescence): significant increase in co-localization
growth of ARID1A-mutated tumors (luciferase total flux) ([5]; 50 mg/kg daily i.p., 21 days): significantly inhibited the growth
number of tumor nodules in peritoneal cavity ([5]; 50 mg/kg daily, 3 weeks): significant decrease in the number of tumor nodules
tumor burden (tumor weight) ([5]; 50 mg/kg daily, 3 weeks): significantly reduced the burden
survival of mice bearing ARID1A-mutated tumors ([5]; 50 mg/kg daily, 3 weeks, followed after stopping treatment): significantly improved the survival
median survival ([5]; 50 mg/kg daily, 3 weeks, vehicle control 35 days, p=0.0023): 51 days
HDAC6 expression (IHC) [5, 6]: not affected
apoptotic marker cleaved caspase 3 (IHC H-score) [5, 6]: increased
cell proliferation marker Ki67 (IHC H-score) [5, 6]: significantly decreased
p53K120Ac staining (IHC) [5, 6]: significantly increased
